In US20260132132A1, “3A,4,5,6-TETRAHYDRO-1 H-PYRAZOLO[3,4-C]PYRIDIN-7(7AH)-ONE DERIVATIVES AS FACTOR XIIA INHIBITORS” (KALVISTA PHARMACEUTICALS LIMITED, priority 2022, published 2026) one finds IC50 and activity data, which are given here for 17 compounds.

The structures appear in SMILES notation. pIC50: −log10 of the molar value. Bounds are passed on as bounds.

What all share (assay type): biochemical
Assay [1] addresses T1, Human Factor XIIa (hFXIIa) (Homo sapiens, UniProt P00748).
T1 construct: purchased Enzyme Research Laboratories
T1 sequence (P00748 373-615 limits assumed): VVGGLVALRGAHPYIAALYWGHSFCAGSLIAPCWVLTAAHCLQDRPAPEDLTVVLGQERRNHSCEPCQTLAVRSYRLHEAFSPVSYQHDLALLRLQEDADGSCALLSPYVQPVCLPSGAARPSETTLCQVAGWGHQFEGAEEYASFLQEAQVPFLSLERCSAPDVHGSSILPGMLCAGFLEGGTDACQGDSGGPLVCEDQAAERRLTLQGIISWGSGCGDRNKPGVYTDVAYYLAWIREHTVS
T1 sequence (P00748 20-372 partner limits assumed): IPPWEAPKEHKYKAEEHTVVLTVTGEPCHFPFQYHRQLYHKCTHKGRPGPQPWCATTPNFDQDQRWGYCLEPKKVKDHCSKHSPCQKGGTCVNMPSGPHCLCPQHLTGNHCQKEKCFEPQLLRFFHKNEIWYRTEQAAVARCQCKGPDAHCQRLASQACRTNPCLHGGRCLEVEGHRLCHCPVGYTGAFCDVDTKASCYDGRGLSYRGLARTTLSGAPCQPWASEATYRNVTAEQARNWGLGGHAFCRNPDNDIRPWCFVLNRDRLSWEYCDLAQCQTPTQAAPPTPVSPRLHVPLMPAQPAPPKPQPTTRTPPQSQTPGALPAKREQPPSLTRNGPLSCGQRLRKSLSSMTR
As to the kind of experiment: Determination of Human Factor XIIa (hFXIIa) inhibition, fluorogenic substrate IC50 assay. As to conditions: fluorogenic substrate H-DPro-Phe-Arg-AFC at Km, 25° C., read-out: Human FXIIa IC50. As for the experimental part: Determination of Human Factor XIIa (hFXIIa) inhibition
The Km for the cleavage of the substrate by hFXIIa was determined by standard transformation of the Michaelis-Menten equation, with subsequent inhibition assays performed at substrate Km concentration.

Assay [2] has as its target FXa (Homo sapiens, UniProt P00742). Briefly: Related protease inhibition: FXa, fluorogenic substrate. As to conditions: fluorogenic substrate at Km, 25° C., H1-H3 = % activity at 40 μM; for activity at 40 µM: read-out: IC50 (human FXa) nM. The method, then: (§1) Human serine protease enzyme Plasma Kallikrein, KLK1, FXa, Plasmin, Thrombin and Trypsin were assayed for enzymatic activity using an appropriate fluorogenic substrate at Km concentration, FXIa at fixed substrate concentration of 100 μM and various concentrations of the test compound.

Assay [3] addresses Thrombin (Homo sapiens, UniProt P00734). As to the kind of experiment: Related protease inhibition: Thrombin, fluorogenic substrate. As to conditions: fluorogenic substrate at Km, 25° C., H1-H3 = % activity at 40 μM; for activity at 40 µM: read-out: IC50 (human thrombin) nM. The method, then:
as §1

A word on the pIC50: it is the IC50 on a negative log10 scale, so that one unit is a factor of ten.

FXa, sequence (P00742 235-488 limits assumed): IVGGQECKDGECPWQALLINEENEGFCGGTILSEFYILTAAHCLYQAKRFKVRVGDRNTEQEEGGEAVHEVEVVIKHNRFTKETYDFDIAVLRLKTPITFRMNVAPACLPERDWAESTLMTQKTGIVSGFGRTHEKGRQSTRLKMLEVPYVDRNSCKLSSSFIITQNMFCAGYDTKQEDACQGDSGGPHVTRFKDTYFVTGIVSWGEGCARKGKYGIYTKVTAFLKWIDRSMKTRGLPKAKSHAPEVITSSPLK
FXa, sequence (P00742 41-179 partner limits assumed): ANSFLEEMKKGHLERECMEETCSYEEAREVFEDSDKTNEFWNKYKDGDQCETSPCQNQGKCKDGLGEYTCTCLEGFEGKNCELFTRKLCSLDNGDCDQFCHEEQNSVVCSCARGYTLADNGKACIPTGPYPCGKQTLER

As for `CCNC(=O)c1nn(-c2cccc(Cl)c2)c2c1CCN(c1cccc(N3CC4CC4C3)c1)C2=O` (stereo not drawn) [Example 1431, 6-(3-(3-azabicyclo[3.1.0]hexan-3-yl)phenyl)-1-(3-chlorophenyl)-N-ethyl-7-oxo-4,5,6,7-tetrahydro-1H-pyrazolo[3,4-c]pyridine-3-carboxamide], the negative logarithm of the IC50 (pIC50) in assay [1] is 4.40 to 5.00. For the same compound, the activity at 40 µM in assay [2] was under 20%; in assay [3] it was 20 to 80%.
On to `Cc1cc(CNC(=O)c2nn(-c3cccc(Cl)c3)c3c2CCN(c2ccc4c(c2)C(=O)N(CC(F)(F)F)CCO4)C3=O)n[nH]1` [Example 1378, 1-(3-chlorophenyl)-N-((5-methyl-1H-pyrazol-3-yl)methyl)-7-oxo-6-(5-oxo-4-(2,2,2-trifluoroethyl)-2,3,4,5-tetrahydrobenzo[f][1,4]oxazepin-7-yl)-4,5,6,7-tetrahydro-1H-pyrazolo[3,4-c]pyridine-3-carboxamide], for which the pIC50 in assay [1] was 7.00 to 8.00; in assay [2], 4.40 to 5.00; in assay [3], 4.40 to 5.00.
For `CCNC(=O)c1nn(-c2cccc(Cl)c2)c2c1CCN(c1cc(N3C(=O)CC4CC43)ccc1F)C2=O` (stereo not drawn) [Example 1433, 1-(3-chlorophenyl)-N-ethyl-6-(2-fluoro-5-(3-oxo-2-azabicyclo[3.1.0]hexan-2-yl)phenyl)-7-oxo-4,5,6,7-tetrahydro-1H-pyrazolo[3,4-c]pyridine-3-carboxamide], in assay [1], the pIC50 was 6.00 to 6.52. Moreover, the activity at 40 µM in assay [2] was 20 to 80%; in assay [3], over 80%.
With `CN1CCc2ccc(N3CCc4cnn(-c5cc(Cl)cc(CN)c5)c4C3=O)cc2C1=O` [Example 2047, 7-(1-(3-(aminomethyl)-5-chlorophenyl)-7-oxo-1,4,5,7-tetrahydro-6H-pyrazolo[3,4-c]pyridin-6-yl)-2-methyl-3,4-dihydroisoquinolin-1(2H)-one], the negative logarithm of the IC50 (pIC50) in assay [1] is 4.40 to 5.00. Also, the activity at 40 µM in assay [2] and in assay [3] was over 80% each time.
In the case of `CCNC(=O)c1nn(-c2cccc(Cl)c2CO)c2c1CCN(c1ccc3c(c1)C(=O)N(C)CC3)C2=O` [Example 2052, 1-(3-chloro-2-(hydroxymethyl)phenyl)-N-ethyl-6-(2-methyl-1-oxo-1,2,3,4-tetrahydroisoquinolin-7-yl)-7-oxo-4,5,6,7-tetrahydro-1H-pyrazolo[3,4-c]pyridine-3-carboxamide], the negative logarithm of the IC50 (pIC50) in assay [1] was 4.40 to 5.00. Further, the activity at 40 µM in assay [2] and in assay [3] was over 80% throughout.
Regarding `CCNC(=O)c1nn(-c2cccc(Cl)c2)c2c1CCN(c1cccc(N3CCOCC3=O)c1)C2=O` [Example 1426, 1-(3-chlorophenyl)-N-ethyl-7-oxo-6-(3-(3-oxomorpholino)phenyl)-4,5,6,7-tetrahydro-1H-pyrazolo[3,4-c]pyridine-3-carboxamide], the pIC50 in assay [1] was 4.40 to 5.00. The activity at 40 µM in assay [2] and in assay [3] was 20 to 80% each time.
`CN1CCc2ccc(N3CCc4c(C(=O)N[C@@H](CO)C5CC5)nn(-c5cccc(Cl)c5F)c4C3=O)cc2C1=O` [Example 2043, (R)-1-(3-chloro-2-fluorophenyl)-N-(1-cyclopropyl-2-hydroxyethyl)-6-(2-methyl-1-oxo-1,2,3,4-tetrahydroisoquinolin-7-yl)-7-oxo-4,5,6,7-tetrahydro-1H-pyrazolo[3,4-c]pyridine-3-carboxamide]: in assay [1], the pIC50 is 7.00 to 8.00. The activity at 40 µM in assay [2] and in assay [3] was 20 to 80% in each case.
With `CCNC(=O)c1nn(-c2cc(Cl)cc(COC)c2)c2c1CCN(c1ccc3c(c1)C(=O)N(C)CC3)C2=O` [Example 2058, 1-(3-chloro-5-(methoxymethyl)phenyl)-N-ethyl-6-(2-methyl-1-oxo-1,2,3,4-tetrahydroisoquinolin-7-yl)-7-oxo-4,5,6,7-tetrahydro-1H-pyrazolo[3,4-c]pyridine-3-carboxamide], the negative logarithm of the IC50 (pIC50) in assay [1] was 5.00 to 5.52; in assay [2], under 4.40; in assay [3], under 4.40.
With `CN1CCc2ccc(N3CCc4c(C(=O)NC5CNCC5(F)F)nn(-c5cccc(Cl)c5)c4C3=O)cc2C1=O` (stereo not drawn) [Example 1425, 1-(3-chlorophenyl)-N-(4,4-difluoropyrrolidin-3-yl)-6-(2-methyl-1-oxo-1,2,3,4-tetrahydroisoquinolin-7-yl)-7-oxo-4,5,6,7-tetrahydro-1H-pyrazolo[3,4-c]pyridine-3-carboxamide], the negative logarithm of the IC50 (pIC50) in assay [1] is 6.00 to 6.52. Also, the activity at 40 µM in assay [2] and in assay [3] was over 80% throughout.
In the case of `COCc1nn(-c2cccc(C#N)c2C)c2c1CCN(c1ccc3c(c1)C(=O)N(C)CC3)C2=O` [Example 2038, 3-(3-(Methoxymethyl)-6-(2-methyl-1-oxo-1,2,3,4-tetrahydroisoquinolin-7-yl)-7-oxo-4,5,6,7-tetrahydro-1H-pyrazolo[3,4-c]pyridin-1-yl)-2-methylbenzonitrile], the negative logarithm of the IC50 (pIC50) in assay [1] is 4.40 to 5.00. The activity at 40 µM in assay [2] and in assay [3] was over 80% each time.
Turning to `CCNC(=O)c1nn(-c2cccc(Cl)c2)c2c1CCN(c1ccc(OC)c(CN3CCCCC3)c1)C2=O` [Example 1419, 1-(3-chlorophenyl)-N-ethyl-6-(4-methoxy-3-(piperidin-1-ylmethyl)phenyl)-7-oxo-4,5,6,7-tetrahydro-1H-pyrazolo[3,4-c]pyridine-3-carboxamide], the pIC50 in assay [1] was 5.52 to 6.00. Also, the activity at 40 µM in assay [2] and in assay [3] was 20 to 80% each time.
For `CCNC(=O)c1nn(-c2cccc(Cl)c2)c2c1CCN(c1cccc(N3C4CCC3CN(C)C4)c1)C2=O` [Example 1436, 1-(3-chlorophenyl)-N-ethyl-6-(3-(3-methyl-3,8-diazabicyclo[3.2.1]octan-8-yl)phenyl)-7-oxo-4,5,6,7-tetrahydro-1H-pyrazolo[3,4-c]pyridine-3-carboxamide], the pIC50 in assay [1] is 5.00 to 5.52. Further, the activity at 40 µM in assay [2] and in assay [3] was over 80% each time.
As for `CN1CCc2ccc(N3CCc4c(C(=O)NCCCO)nn(-c5cccc(Cl)c5)c4C3=O)cc2C1=O` [Example 1417, 1-(3-chlorophenyl)-N-(3-hydroxypropyl)-6-(2-methyl-1-oxo-1,2,3,4-tetrahydroisoquinolin-7-yl)-7-oxo-4,5,6,7-tetrahydro-1H-pyrazolo[3,4-c]pyridine-3-carboxamide], in assay [1], the negative logarithm of the IC50 (pIC50) is 6.00 to 6.52. For the same compound, the activity at 40 µM in assay [2] and in assay [3] was 20 to 80% each time.
Take `CCNC(=O)c1nn(-c2cccc(Cl)c2)c2c1CCN(c1ccc3c(c1)N(C(C)=O)CC31CC1)C2=O` [Example 1429, 6-(1′-acetylspiro[cyclopropane-1,3′-indolin]-6′-yl)-1-(3-chlorophenyl)-N-ethyl-7-oxo-4,5,6,7-tetrahydro-1H-pyrazolo[3,4-c]pyridine-3-carboxamide]: in assay [1], the pIC50 is 6.00 to 6.52. Also, the activity at 40 µM in assay [2] and in assay [3] was 20 to 80% throughout.
On to `CN1CCOc2ccc(N3CCc4c(C(=O)N[C@H](CO)C5CC5)nn(-c5cccc(Cl)c5F)c4C3=O)cc2C1=O` [Example 2053, (S)-1-(3-chloro-2-fluorophenyl)-N-(1-cyclopropyl-2-hydroxyethyl)-6-(4-methyl-5-oxo-2,3,4,5-tetrahydrobenzo[f][1,4]oxazepin-7-yl)-7-oxo-4,5,6,7-tetrahydro-1H-pyrazolo[3,4-c]pyridine-3-carboxamide], for which the pIC50 in assay [1] is 7.00 to 8.00. For the same compound, the activity at 40 µM in assay [2] was 20 to 80%; in assay [3], over 80%.
For the compound `CN1CCc2ccc(N3CCc4c(C(=O)N[C@H]5COC[C@H]5O)nn(-c5cccc(Cl)c5)c4C3=O)cc2C1=O` [Example 1416, 1-(3-chlorophenyl)-N-((3S,4S)-4-hydroxytetrahydrofuran-3-yl)-6-(2-methyl-1-oxo-1,2,3,4-tetrahydroisoquinolin-7-yl)-7-oxo-4,5,6,7-tetrahydro-1H-pyrazolo[3,4-c]pyridine-3-carboxamide], in assay [1], the pIC50 was 6.52 to 7.00. In addition, the activity at 40 µM in assay [2] and in assay [3] was 20 to 80% each time.
For the compound `CN1CCc2ccc(N3CCc4c(C(=O)NCC5CCOCC5)nn(-c5cccc(Cl)c5)c4C3=O)cc2C1` [Example 1027, 1-(3-chlorophenyl)-6-(2-methyl-1,2,3,4-tetrahydroisoquinolin-7-yl)-7-oxo-N-((tetrahydro-2H-pyran-4-yl)methyl)-4,5,6,7-tetrahydro-1H-pyrazolo[3,4-c]pyridine-3-carboxamide], the pIC50 in assay [1] is 6.00 to 6.52; in assay [2] it was 5.00 to 5.52; in assay [3], under 4.00.
